Assay results published in patent US20240391956A1, “STAPLED PEPTIDES AND METHODS THEREOF” (FOG PHARMACEUTICALS, INC., priority 2023, published 2024).
*1 amine or outer side, *2 acyl side, *3 side chain or, on linkers, in order; H or OH if unused. Where a SMILES comes first, the peptide text is derived from it. Bridges are numbered along the chain shown (N, C = ends). [ ]: non-standard residue; d: D form. Phenylene(1,4-NHCOCH2)2 = O=C(C[*:1])Nc1ccc(NC(=O)C[*:2])cc1

Biological target: T1, CHIP23-303 recombinant protein (Homo sapiens, UniProt Q9UNE7)
T1 construct: 6xHis (N, cleaved yes); TEV site (N, cleaved yes); made in house; host or cells: E. coli BL21 CodonPlus
T1 sequence (Q9UNE7 23-303): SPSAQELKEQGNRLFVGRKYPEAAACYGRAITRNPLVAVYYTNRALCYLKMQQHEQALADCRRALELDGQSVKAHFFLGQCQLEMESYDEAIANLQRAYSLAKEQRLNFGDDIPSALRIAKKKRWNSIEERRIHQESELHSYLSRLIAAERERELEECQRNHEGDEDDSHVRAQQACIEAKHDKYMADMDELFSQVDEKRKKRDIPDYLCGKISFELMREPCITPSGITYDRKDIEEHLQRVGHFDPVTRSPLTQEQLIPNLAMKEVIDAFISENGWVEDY
Test: Competition fluorescence polarization with CHIP23-303 and HSP70-derived probe 5FAM-bAla-[…]
Type: binding
Conditions: competition FP, 400 nM CHIP23-303, 20 nM probe, 1 hour at room temperature; read-out: Measured KD
Description: For the competition FP of CHIP, stapled peptides at 10 mM in DMSO were serially diluted 1:3 in DMSO for a total of 11 concentrations using a Mosquito LV (SPT Labtech), then diluted 1000-fold in buffer (1×HBS-P+, Cytiva) in duplicate by the Mosquito LV (SPT Labtech) into a black polystyrene 384-well plate (Corning) (11-point three-fold peptide dilution series with top concentration=10 μM). The assay was performed with 400 nM CHIP23-303 recombinant protein as target, and 20 nM BCHIP-binding peptide as probe (5FAM-bAla-[…] (SEQ ID NO: 18), derived from HSP70). The plate was incubated and protected from light for 1 hour at room temperature prior to reading. Reads were performed on a CLARIOstar plate reader (BMG Labtech) with excitation at 485 nm, emission at 525 nm, and cutoff at 504 nm. Data were fitted to a 1:1 binding model with Hill slope using an in-house script.
In some embodiments, CHP polypeptide was prepared as follows: CHIP (residues 23-303 for competition FP and 23-154 for crystallography) with an N-terminal 6×His-TEV tag was recombinantly expressed in E. coli BL21 CodonPlus cells (Agilent) from a pET21b-derived expression vector (Novagen) (“6×His” disclosed as SEQ ID NO: 13). The cells were induced at OD600=0.6 with 1 mM IPTG for 4 hours at 37° C., then harvested and resuspended in 50 mM Tris-HCl pH 8.0, 500 mM NaCl, 10 mM imidazole, 10% glycerol, and 10 mM ß-me. For purification, the pellet was lysed with a tip sonicator with power level set at 400 W, 3 seconds on and 3 seconds off for 20 min, pelleted at 22,000×g for 30 minutes at 4° C. The supernatant was purified with Ni-NTA resin (Qiagen), eluting with 250 mM imidazole. Eluted proteins were pooled, concentrated, and TEV-cleaved by adding TEV protease at a ratio of 1:10 protease to protein and incubated overnight at 4° C. TEV-cleaved proteins were loaded onto a Superdex™ 10/300 75 pg (Cytiva) SEC column, and eluted in 50 mM HEPES, pH 8.0, 150 mM NaCl, 10% glycerol, 2 mM DTT. Fractions containing pure protein were collected, pooled, concentrated to 30 mg/mL and stored at −80° C. […]

| Kd | SMILES |
| --- | --- |
| 550 nM | CSCC[C@@H](NC(=O)[C@@H](CCC(=O)O)NC(=O)[C@@H](Cc1c[nH]cn1)NC(=O)[C@H]1CCCN1C(C)=O)C(=O)N[C@@H]1CSCC(=O)Nc2ccc(cc2)NC(=O)CSC[C@H](C(=O)N[C@H](CCCNC(=N)N)C(=O)N[C@H](Cc2ccc(O)cc2)C(=O)N[C@H](CO)C(N)=O)NC(=O)[C@@H](Cc2ccc(O)cc2)NC(=O)[C@@H](C)NC(=O)[C@@H](CC(=O)O)NC(=O)[C@@H](C)NC(=O)[C@@H](Cc2c[nH]c3ccccc23)NC(=O)[C@@H](Cc2ccc(O)cc2)NC1=O [H203, Ac-phemcywadaycrys-NH2] (Ac-[dP][dH][dE][dM][dC][dY][dW][dA][dD][dA][dY][dC][dR][dY][dS]-NH2; linker 5-12 via Phenylene(1,4-NHCOCH2)2) |
| 770 nM | CC[C@@H](C)[C@@H](NC(=O)[C@H]1CSCC(=O)Nc2ccc(cc2)NC(=O)CSC[C@@H](NC(=O)[C@@H](CC(C)C)NC(=O)[C@@H](CC(=O)O)NC(=O)[C@@H](CC(C)C)NC(=O)[C@H]2CCCN2C(C)=O)C(=O)N[C@H](Cc2ccc(O)cc2)C(=O)N[C@H](Cc2c[nH]c3ccccc23)C(=O)N[C@H](C)C(=O)N[C@H](CO)C(=O)N[C@H](CC(C)C)C(=O)N[C@H](Cc2c[nH]cn2)C(=O)N1)C(=O)N[C@@H](C(=O)N[C@H](CO)C(N)=O)C(C)C [H204, Ac-pldlcywaslhcivs-NH2] (Ac-[dP][dL][dD][dL][dC][dY][dW][dA][dS][dL][dH][dC][dI][dV][dS]-NH2; linker 5-12 via Phenylene(1,4-NHCOCH2)2) |
